Experiments:
Test in all cases: MIC by agar dilution method
Type in all cases: cell-based
C. diphtheriae Tronto = settings: Corynebacterium diphtheriae, 24 h
Protocol: (§1) The minimal inhibitory concentrations [MIC (μg/ml)] of a representative compound of the invention were determined by the following method.
(§2) Method for MIC determination
(§3) The MIC values of the test compound were determined by the agar dilution method. Thus, 1.0 ml aliquots of serial aqueous dilutions of the test compound were put in petri dishes and 9.0 ml aliquots of Trypticase Soy Agar were added and mixed. Those agar plates were respectively smeared with a suspension (about 10^8 CFU/ml) of the test organism and incubated at 37° C. overnight.

E. coli NIHJ T-7 = settings: Escherichia coli, NIHJT7, 24 h, 10^8 CFU/ml, 37° C. overnight
Protocol: as §1, §2, §3

S. aureus FDA 209P = settings: Staphylococcus aureus, FDA209P, 24 h, 10^8 CFU/ml, 37° C. overnight
Protocol: as §1, §2, §3

M. morganii IFO 3168 = settings: Morganella morganii, IFO3168, 24 h, 10^8 CFU/ml, 37° C. overnight
Protocol: as §1, §2, §3

C. freundii IFO 12681 = settings: Citrobacter freundii, IFO12681, 24 h, 10^8 CFU/ml, 37° C. overnight
Protocol: as §1, §2, §3

P. mirabilis IFO 3849 = settings: Proteus mirabilis, IFO3849, 24 h, 10^8 CFU/ml, 37° C. overnight
Protocol: as §1, §2, §3

P. vulgaris IFO 3988 = settings: Proteus vulgaris, IFO3988, 24 h, 10^8 CFU/ml, 37° C. overnight
Protocol: as §1, §2, §3

K. pneumoniae DT = settings: Klebsiella pneumoniae, 24 h, 10^8 CFU/ml, 37° C. overnight
Protocol: as §1, §2, §3

S. pyogenes S-8 = settings: Streptococcus pyogenes, S8, 24 h, 10^8 CFU/ml, 37° C. overnight
Protocol: as §1, §2, §3

K. oxytoca TN 1711 = settings: Klebsiella oxytoca, TN1711, 24 h, 10^8 CFU/ml, 37° C. overnight
Protocol: as §1, §2, §3

S. pyogenes E-14 = settings: Streptococcus pyogenes, E14, 24 h, 10^8 CFU/ml, 37° C. overnight
Protocol: as §1, §2, §3

E. cloacae IFO 12937 = settings: Enterobacter cloacae, IFO12937, 24 h, 10^8 CFU/ml, 37° C. overnight
Protocol: as §1, §2, §3

E. coli NIHJ O-111 = settings: Escherichia coli, NIHJO111, 24 h, 10^8 CFU/ml, 37° C. overnight
Protocol: as §1, §2, §3

E. coli NIHJ JC-2 = settings: Escherichia coli, NIHJJC2, 24 h, 10^8 CFU/ml, 37° C. overnight
Protocol: as §1, §2, §3

C. freundii TN 474 = settings: Citrobacter freundii, TN474, 24 h, 10^8 CFU/ml, 37° C. overnight
Protocol: as §1, §2, §3

S. aureus 308A-1 = settings: Staphylococcus aureus, 308A1, 24 h, 10^8 CFU/ml, 37° C. overnight
Protocol: as §1, §2, §3

E. cloacae TN 583 = settings: Enterobacter cloacae, TN583, 24 h, 10^8 CFU/ml, 37° C. overnight
Protocol: as §1, §2, §3

S. pneumoniae Type I = settings: Streptococcus pneumoniae, 24 h, 10^8 CFU/ml, 37° C. overnight
Protocol: as §1, §2, §3

S. marcescens IFO 12648 = settings: Serratia marcescens, IFO12648, 24 h, 10^8 CFU/ml, 37° C. overnight
Protocol: as §1, §2, §3

S. aureus 1840 = settings: Staphylococcus aureus, 24 h, 10^8 CFU/ml, 37° C. overnight
Protocol: as §1, §2, §3

S. mitis America = settings: Streptococcus mitis, 24 h, 10^8 CFU/ml, 37° C. overnight
Protocol: as §1, §2, §3

## C[C@@H](O)[C@H]1C(=O)N2C(C(=O)[O-])=C3SCCCC3[C@H]12.[Na+] (mixture of isomers) [Example 3, Sodium (5S,6S,7RS)-5-[(R)-1-hydroxyethyl]-4-oxo-3-aza-11-thiatricyclo[5.4.0.0^3,6]undec-1-ene-2-carboxylate]
C. diphtheriae Tronto
  MIC: < 0.1 µg/mL
E. coli NIHJ T-7
  MIC: 0.2 µg/mL
S. aureus FDA 209P
  MIC: 0.78 µg/mL
M. morganii IFO 3168
  MIC: 3.13 µg/mL
C. freundii IFO 12681
  MIC: 0.39 µg/mL
P. mirabilis IFO 3849
  MIC: 1.56 µg/mL
P. vulgaris IFO 3988
  MIC: 3.13 µg/mL
K. pneumoniae DT
  MIC: 0.39 µg/mL
S. pyogenes S-8
  MIC: 0.2 µg/mL
K. oxytoca TN 1711
  MIC: 0.39 µg/mL
S. pyogenes E-14
  MIC: 0.78 µg/mL
E. cloacae IFO 12937
  MIC: 0.78 µg/mL
E. coli NIHJ O-111
  MIC: 0.2 µg/mL
E. coli NIHJ JC-2
  MIC: 0.2 µg/mL
C. freundii TN 474
  MIC: 1.56 µg/mL
S. aureus 308A-1
  MIC: 0.78 µg/mL
E. cloacae TN 583
  MIC: 0.78 µg/mL
S. pneumoniae Type I
  MIC: 0.39 µg/mL
S. marcescens IFO 12648
  MIC: 1.56 µg/mL
S. aureus 1840
  MIC: 1.56 µg/mL
S. mitis America
  MIC: 0.78 µg/mL

— patent US5393751A, “Tricyclic carbapenem compounds” (Takeda Chemical Industries, Ltd., priority 1989, dated 1995)
